# Experimental data published in ChEMBL document CHEMBL1156202, “The effect of the pyridyl nitrogen position in pyridylpiperazine sigma ligands” (Bioorg Med Chem Lett, 2010).
# pKi: −log10 of the molar value.
# Experiments:
# [1] = Displacement of [3H]di-O-tolylguanidine from rat brain membrane sigma 2 receptor after 120 mins in the presence of (+)-pentazocin
# [2] = organism: Rattus norvegicus; test: Selectivity ratio of Ki for rat brain membrane sigma 1receptor to Ki for rat brain membrane sigma 2 receptor
# [3] = target: Sigma non-opioid intracellular receptor 1 (Rattus norvegicus, UniProt Q9R0C9); test: Displacement of [3H](+)-pentazocine from rat brain membrane sigma 1receptor after 120 mins
# Sigma non-opioid intracellular receptor 1, sequence (Q9R0C9 whole entry): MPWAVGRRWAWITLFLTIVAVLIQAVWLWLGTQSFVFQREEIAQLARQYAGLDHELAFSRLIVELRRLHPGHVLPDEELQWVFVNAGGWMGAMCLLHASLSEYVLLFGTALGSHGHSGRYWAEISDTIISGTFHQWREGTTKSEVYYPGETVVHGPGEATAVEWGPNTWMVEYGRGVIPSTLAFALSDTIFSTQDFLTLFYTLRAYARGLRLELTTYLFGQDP
Compound,pKi [1],Ratio Ki [2],pKi [3]
c1ccc(CCN2CCN(c3ccncc3)CC2)cc1,7.16,0.6,7.38
c1ccc(CCCN2CCN(c3cccnc3)CC2)cc1,6.96,0.19,7.67
c1ccc(CCCN2CCN(c3ccccn3)CC2)cc1,8.31,16.9,
c1ccc(CCCN2CCN(c3ccncc3)CC2)cc1,7.08,0.41,7.47
c1ccc(CCN2CCN(c3ccccn3)CC2)cc1,6.92,2.7,
c1ccc(CCN2CCN(c3cccnc3)CC2)cc1,6.36,0.22,7.01
